Structures can show the parent of a compound that is named as a salt.
test: Dynamic Vapor Sorption (DVS), hygroscopicity of solids; type: physicochemical; settings: from about 10% to about 90% RH at about 25° C.
Protocol: Dynamic Vapor Sorption (DVS):
DVS data, which was used to determine the hygroscopicity of solids, were collected on a TA Instruments Q5000SA system. The temperature-controlled chamber was set at 25° C. and dry nitrogen was introduced at a flow rate of 10 mL/min. Approximately 1 to 5 mg sample was placed in a semispherical metal-coated quartz crucible or a disposable aluminum pan. A stepwise isotherm experiment at 25° C. was conducted by controlling the relative humidity (RH) in the chamber from 10% to 90%, then down to 10%, at 10% increments to accomplish a full sorption/desorption cycle.

Question: With `CC#CC(=O)N1CC[C@@H](n2c(=O)n(-c3ccc(Oc4ccccc4)cc3)c3c(N)ncnc32)C1` [Compound (I) oxalate, 6-amino-9-[(3R)-1-(2-butynoyl)-3-pyrrolidinyl]-7-(4-phenoxyphenyl)-7,9-dihydro-8H-purin-8-one] as the compound, how does the “dynamic vapor sorption isotherm water uptake” value read?
Answer: about 0.5%

Question: Which “dynamic vapor sorption isotherm water uptake” value does the source give for `CC#CC(=O)N1CC[C@@H](n2c(=O)n(-c3ccc(Oc4ccccc4)cc3)c3c(N)ncnc32)C1` [Compound (I) heminapadisylate, 6-amino-9-[(3R)-1-(2-butynoyl)-3-pyrrolidinyl]-7-(4-phenoxyphenyl)-7,9-dihydro-8H-purin-8-one] here?
Answer: about 6.5%

Question: With `CC#CC(=O)N1CC[C@@H](n2c(=O)n(-c3ccc(Oc4ccccc4)cc3)c3c(N)ncnc32)C1` [Compound (I) hemisulfate, 6-amino-9-[(3R)-1-(2-butynoyl)-3-pyrrolidinyl]-7-(4-phenoxyphenyl)-7,9-dihydro-8H-purin-8-one] as the compound, how does the “dynamic vapor sorption isotherm water uptake” value read?
Answer: about 1.2%

Question: With `CC#CC(=O)N1CC[C@@H](n2c(=O)n(-c3ccc(Oc4ccccc4)cc3)c3c(N)ncnc32)C1` [Compound (I) fumarate, 6-amino-9-[(3R)-1-(2-butynoyl)-3-pyrrolidinyl]-7-(4-phenoxyphenyl)-7,9-dihydro-8H-purin-8-one] as the compound, how does the “dynamic vapor sorption isotherm water uptake” value read?
Answer: about 0.1%

Question: With `CC#CC(=O)N1CC[C@@H](n2c(=O)n(-c3ccc(Oc4ccccc4)cc3)c3c(N)ncnc32)C1` [Compound (I) succinate, 6-amino-9-[(3R)-1-(2-butynoyl)-3-pyrrolidinyl]-7-(4-phenoxyphenyl)-7,9-dihydro-8H-purin-8-one] as the compound, how does the “dynamic vapor sorption isotherm water uptake” value read?
Answer: about 0.2%

Question: Which “dynamic vapor sorption isotherm water uptake” value does the source give for `CC#CC(=O)N1CC[C@@H](n2c(=O)n(-c3ccc(Oc4ccccc4)cc3)c3c(N)ncnc32)C1` [Compound (I) hemiedisylate, 6-amino-9-[(3R)-1-(2-butynoyl)-3-pyrrolidinyl]-7-(4-phenoxyphenyl)-7,9-dihydro-8H-purin-8-one] here?
Answer: about 3%

Question: For `CC#CC(=O)N1CC[C@@H](n2c(=O)n(-c3ccc(Oc4ccccc4)cc3)c3c(N)ncnc32)C1` [Compound (I) edisylate, 6-amino-9-[(3R)-1-(2-butynoyl)-3-pyrrolidinyl]-7-(4-phenoxyphenyl)-7,9-dihydro-8H-purin-8-one], which “dynamic vapor sorption isotherm water uptake” value is on record?
Answer: about 22%
